This note sets out measurements from patent US7045648B2, “Compound as cholinesterase inhibitor and its isolation from fungus sporotrichum species” (priority 2002, dated 2006).

Series [1] concerns the target T1, rat brain acetylcholinesterase (Rattus norvegicus, UniProt P37136).
T1 construct: from tissue; host or cells: rat brain
T1 sequence (P37136 32-614): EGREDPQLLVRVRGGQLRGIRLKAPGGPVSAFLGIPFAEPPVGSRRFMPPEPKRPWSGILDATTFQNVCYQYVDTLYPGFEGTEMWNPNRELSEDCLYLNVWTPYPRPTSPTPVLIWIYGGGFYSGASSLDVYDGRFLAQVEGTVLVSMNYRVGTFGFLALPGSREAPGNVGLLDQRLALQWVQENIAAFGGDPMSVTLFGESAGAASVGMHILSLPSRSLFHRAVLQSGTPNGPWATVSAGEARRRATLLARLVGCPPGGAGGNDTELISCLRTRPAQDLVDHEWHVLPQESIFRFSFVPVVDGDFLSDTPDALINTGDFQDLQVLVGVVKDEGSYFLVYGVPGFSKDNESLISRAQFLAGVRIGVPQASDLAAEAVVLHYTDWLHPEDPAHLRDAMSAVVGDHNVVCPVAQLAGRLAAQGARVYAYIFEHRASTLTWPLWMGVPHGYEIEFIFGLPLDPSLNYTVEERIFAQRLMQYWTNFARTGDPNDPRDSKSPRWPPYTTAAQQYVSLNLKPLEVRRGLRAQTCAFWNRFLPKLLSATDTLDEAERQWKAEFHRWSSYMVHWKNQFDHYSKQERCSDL
As to the kind of experiment: Rat brain acetylcholinesterase inhibition (Ellman method). To be noted: rat brain enzyme; 15 min pre-incubation at 25° C.; acetyl thiocholine iodide 0.5 mM; pH 7.4; read-out: IC50 against rat brain AchE. The class given is biochemical. The procedure: Absorbance change at 412 nm is monitored every 30 seconds for 2 min in an UV-VIS Spectrophotometer. Inhibition is calculated relative to the solvent control. IC50 is determined by regression analysis.

Series [2] concerns serine esterase of the rat liver serum. As to the kind of experiment: Serine esterase inhibition. The class given is biochemical.
In series [3] the target is T2, acetylcholinesterase from erythrocytes (Homo sapiens, UniProt P22303).
T2 construct: from tissue; host or cells: erythrocytes
The series is described as follows: Erythrocyte acetylcholinesterase inhibition. The format is biochemical, rat. To be noted: erythrocyte enzyme; read-out: IC50 against acetylcholinesterase from erythrocytes.

Series [4] in a line: Solubility in organic solvents. The format is physicochemical. Particulars: in ethyl acetate, methanol and acetone.
Series [5] relates to mosquito larvae culex quinquifasciatus. As to the kind of experiment: Insecticidal activity against mosquito larvae. The format is in vivo. Particulars: in water (70 ppm); exposed for 24 hrs. As to the method:
Yet another embodiment of the present invention, wherein said compound effective against mosquito larvae at an optimum concentration of 70 μg/ml water (70 ppm) when exposed for 24 hrs.
Still another embodiment of the present invention, wherein the insecticidal activity of the compound against mosquito larvae is selected from culex quinquifasciatus.

T2 sequence (P22303 32-617 isoform P22303-2 limits assumed): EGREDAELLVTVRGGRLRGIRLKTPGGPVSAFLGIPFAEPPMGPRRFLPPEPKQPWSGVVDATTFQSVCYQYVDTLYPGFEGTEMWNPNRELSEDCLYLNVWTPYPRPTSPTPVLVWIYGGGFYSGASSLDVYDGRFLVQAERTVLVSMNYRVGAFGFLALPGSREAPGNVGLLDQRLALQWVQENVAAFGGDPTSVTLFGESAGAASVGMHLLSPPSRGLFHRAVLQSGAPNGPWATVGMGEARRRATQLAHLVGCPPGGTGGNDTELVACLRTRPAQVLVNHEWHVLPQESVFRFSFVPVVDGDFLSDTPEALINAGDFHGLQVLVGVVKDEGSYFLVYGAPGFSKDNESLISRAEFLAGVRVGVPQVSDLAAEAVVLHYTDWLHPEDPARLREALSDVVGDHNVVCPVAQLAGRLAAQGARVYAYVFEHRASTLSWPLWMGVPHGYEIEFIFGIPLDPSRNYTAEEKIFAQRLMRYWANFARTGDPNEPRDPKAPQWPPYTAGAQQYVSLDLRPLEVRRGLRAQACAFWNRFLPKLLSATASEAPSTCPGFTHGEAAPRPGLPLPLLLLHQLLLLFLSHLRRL

With `COc1ccc(C(=O)O)c(C(O)CCCCCCCC(=O)CC(C)O)c1` (centres unmarked) [Sporotricolone, 12-(2′-CARBOXY-5′-METHOXYPHENYL)-2,12-DIHYDROXY-DODECA-4-ONE], the IC50 in series [1] and in series [3] was 20 µM in each case. Also, in series [2], the “inhibition of serine esterase of the rat liver serum” value is reported as “inhibitor”. For the same compound, the Solubility result in series [4] is reported as “Highly soluble”. Moreover, in series [5], the “optimum concentration effective against mosquito larvae” value is 70 µg/mL.
